# Source: article PMC3073003, “Peptide-Modified Surfaces for Enzyme Immobilization” (PLoS ONE, 2011)
# Ends that are not written are not given here.
# Tests used:
# [1] = molecular target: T1, β-galactosidase (β-Gal) (Escherichia coli, UniProt P00722); assay type: binding, E. coli; design: biotin (chemical label by Sulfo-NHS-biotin on amines, about two per enzyme); purchased Sigma (St. Louis, MO); settings: for Binding affinity (Norm.): β-Gal bound to surface-modified microwells, 25 nM biotin-labeled β-Gal, ELISA, normalized to amine surface 8
# Procedure: (§1) Peptides were conjugated to aminated microwell surfaces through the specific reaction between C-terminal cysteines and the maleimide-activated surfaces, as shown in Figure 1a. […] The microwell plate was then briefly washed with pure water three times. […] The reaction was incubated for 4 hours at room temperature, in the dark. After the conjugation reaction was complete, the microwells were washed for 5 minutes in 1× TBST, three times, followed by three washes in water. To immobilize the enzyme on peptide-modified surfaces, 30 µL of 25 nM biotin-labeled β-Gal was incubated in the peptide-modified microwells for two hours in 10 mM phosphate buffer, pH 7.3 with 100 µM MgCl2 and 0.05% Tween 20 (v/v%), at room temperature. The microwells were washed for 5 minutes in 1× TBST, three times, followed by three washes in phosphate buffer. […] Figures S8–10 in File S1 show the detailed optimization procedures for peptide-modified surfaces.
# (§2) First, 30 µL of 2 mg/mL BS^3 prepared in 1× PBS, pH 7.4 was incubated with the aminated microwells for half an hour. Then, the microwells were briefly washed with nanopure water, three times, to remove unreacted BS^3 molecules. Finally, 30 µL of biotin-labeled β-Gal was incubated with the microwells for one hour, which were then washed three times in 1× TBST, followed by three washes in phosphate buffer.
# (§3) The activity assay of surface-bound β-Gal was performed on a SpectraMax M5 96-well plate reader (Molecular Device, Sunnyvale, CA) by adding 100 µL of 100 µM RBG into the wells. The relative amount of surface-bound β-Gal was measured using an enzyme linked immunosorbant assay (ELISA). β-Gal was first labeled with biotin. Alkaline phosphatase-conjugated strepavidin (0.4 mg/ml) was diluted at 1∶1000 in 1× PBS, 0.05% (v/v) Tween 20. Next, 30 µL of streptavidin solution was added to the β-Gal-bound wells and incubated for one hour at room temperature. The streptavidin solution was then removed and the plate was washed three times with TBST buffer and three times with TBS buffer. Then, 200 µL of 1 mM PNPP was added to each well. The alkaline phosphatase activity was subsequently measured by reading the absorbance increase at 405 nm on the M5 plate reader. The β-Gal binding level was determined from the activity of alkaline phosphatase-conjugated strepavidin bound to the wells.
# [2] = molecular target: T1, β-galactosidase (β-Gal); assay type: biochemical, E. coli; design: biotin (chemical label by Sulfo-NHS-biotin on amines, about two per enzyme); purchased Sigma (St. Louis, MO); settings: for Specific activity (Norm.): total bound enzyme activity divided by total binding intensity; for Specific activity (Norm.) / Activity (Norm.): normalized to amine surface 8; for Activity (Norm.): β-Gal immobilized on surface-modified microwells, 25°C
# Procedure: Figure 1 Enzyme immobilization on peptide-modified surfaces. (a) The overall process for conjugating peptides to aminated microwells through specific reactions between C-terminal cysteines and maleimide-activated surfaces. (b) Activity of β-Gal immobilized on different surfaces. 25 nM β-Gal is first incubated with modified microwells for one hour and then enzyme activity is measured at 25°C as a function of time using 100 µM Resorufin β-D-galactopyranoside as the substrate. YHNN, QYHH, RVFK, PASM and EFSN represent β-Gal bound to various peptide-modified surfaces (see text). […] AMINE represents enzyme bound noncovalently to an aminated surface. […] Each subunit is labeled with a unique color showing the symmetry of the β-Gal structure. […] The substrate-binding sites of β-Gal are circled with right color (Glu461, Met502, Tyr503 and Glu537) according to reference 16.
# as §1, §2, §3
# [3] = molecular target: T1, β-galactosidase (β-Gal); assay type: binding, E. coli; design: biotin (chemical label by Sulfo-NHS-biotin on amines, about two per enzyme); purchased Sigma (St. Louis, MO); settings: for Enzyme binding (Norm.): microarray of 10,000 peptides, selection described in reference [13]
# Source text: (§4) Peptide microarrays containing 132, 20-mer single-point variants of the YHNN peptide were generated using our established, in-house printing method. […] Synthesized peptides (70% purity) were purchased from Sigma. The last three carboxy-terminal positions of each peptide constituted a glycine-serine-cysteine (GSC) linker, used for conjugating the peptides to amino-silane surfaces through the C-terminal cysteine via a maleimide linker, Sulfo-SMCC (Pierce, Rockford, IL). A Telechem Nanoprint60 was used to spot approximately 500 pL of 1 mg/mL peptide prepared in 1× PBS for each feature on glass slides with 48 Telechem series SMP2 style 946 titanium pins.
# (§5) Enzyme assays on the microarrays were performed as described in the previous work. […] The array was incubated with a solution containing 10 nM Alexa™ 647- labeled β-Gal for two hours, allowing the enzyme to bind with peptides on the array surface. After washing off unbound enzymes, a fluorescent substrate analogue (FDG) was mixed with a 5% PVA solution and spin-coated onto the array surface for monitor the enzyme activity. The FDG molecules (substrate) in the PVA layer were converted to fluorescein (product), by the active enzymes bound to specific peptides on the array surface. The fluorescein molecules remained localized because of the PVA viscosity. Both the relative binding level of Alexa™ 647-labeled enzyme and the relative amount of fluorescein produced during the incubation period were determined by dual color scanning. Each array experiment was repeated at least three times under the same conditions for statistical analysis.
# [4] = molecular target: T1, β-galactosidase (β-Gal); assay type: biochemical, E. coli; design: biotin (chemical label by Sulfo-NHS-biotin on amines, about two per enzyme); purchased Sigma (St. Louis, MO); settings: for Enzyme activity (Norm.) / Surface specific activity (Norm.): microarray of 10,000 peptides; for Enzyme activity (Norm.): selection described in reference [13]; for Surface specific activity (Norm.): total bound enzyme activity divided by total binding intensity
# Source text: as §4, §5
# [5] = molecular target: T1, β-galactosidase (β-Gal); test: biochemical; assay type: binding, E. coli; design: biotin (chemical label by Sulfo-NHS-biotin on amines, about two per enzyme); purchased Sigma (St. Louis, MO)
# Procedure: as §3
# [6] = molecular target: T1, β-galactosidase (β-Gal); assay type: biochemical, E. coli; design: biotin (chemical label by Sulfo-NHS-biotin on amines, about two per enzyme); purchased Sigma (St. Louis, MO); settings: read-out: apparent Km of β-Gal; peptide-modified iodoacetyl resin or free enzyme, ~150 pM enzyme, RBG 3-400 µM, 25 °C
# Procedure: The determination of the enzyme kinetic constants (KM and kcat) of immobilized β-Gal was performed on peptide-modified iodoacetyl polyacrylamide resin (UltraLink, Pierce, 50–80 µm diameter). To modify the bead surface with peptide, peptide solutions were incubated with iodoacetyl resin for one hour in 50 mM Tris buffer, 5 mM EDTA, pH 8.5. The unreacted iodacetyl groups were then capped with 50 mM L-cysteine. The amount of peptide immobilized on a bead surface was determined by comparing the peptide concentration of the unbound fraction (the remaining free peptide concentration after binding to the surface) to the starting concentration through absorbance changes at 280 nm. β-Gal was captured on the peptide-modified beads using the same protocol which immobilized the enzyme in the microwells, above. The amount of bead-immobilized β-Gal was measured by comparing the protein concentration of the unbound fraction to the starting protein concentration, determined at 280 nm. KM and Vmax (and thus kcat, using the total enzyme concentration) of β-Gal immobilized on peptide-modified beads were determined by fitting the activity vs. substrate concentration curves in the GraphPad program using the fitting equation of “Y = Vmax*X/(Km+X)”.
# Colored curves: Curve fit determining the Michaelis constants of β-Gal immobilized […]
# The enzyme activities are measured as a function of the concentration of […]
# [7] = molecular target: T1, β-galactosidase (β-Gal)
# Procedure: Figure 2 Point-variant screening of a lead peptide, YHNN. β-Gal was bound to a microarray containing 132 YHNN variants and its activity was measured. (a) The activity of bound β-Gal on microarrays as a function of the amount of enzyme bound to a particular variant feature at room temperature. […] All data is normalized to the binding and activity values for the lead peptide, YHNN. (b) Thermal-stability assay. β-Gal was bound to the microarray containing YHNN variants as in (a) at room temperature, followed by incubation in phosphate buffer at 55°C for one hour. Enzyme activity was then assayed at room temperature. […] (c) pH activity range assay. YHNN variant microarrays were bound to β-Gal as in (a) and incubated at room temperature in buffers with pHs ranging from 6 to 9 for one hour and then assayed for activity at the pH of incubation.
# The library of single-point variants was also screened for enhanced thermal or pH stability of immobilized β-Gal. For thermal stability screening, enzyme was bound to microarrays containing the 132 single-point variants, at room temperature, and then the arrays were incubated at 55°C for one hour and assayed for activity at room temperature.
# [8] = peptide conjugated to aminated microwell
# [9] = peptide-modified aminated microwell
# [10] = microarray of 132 single-point variants, room temperature
# T1 sequence (P00722 2-1024): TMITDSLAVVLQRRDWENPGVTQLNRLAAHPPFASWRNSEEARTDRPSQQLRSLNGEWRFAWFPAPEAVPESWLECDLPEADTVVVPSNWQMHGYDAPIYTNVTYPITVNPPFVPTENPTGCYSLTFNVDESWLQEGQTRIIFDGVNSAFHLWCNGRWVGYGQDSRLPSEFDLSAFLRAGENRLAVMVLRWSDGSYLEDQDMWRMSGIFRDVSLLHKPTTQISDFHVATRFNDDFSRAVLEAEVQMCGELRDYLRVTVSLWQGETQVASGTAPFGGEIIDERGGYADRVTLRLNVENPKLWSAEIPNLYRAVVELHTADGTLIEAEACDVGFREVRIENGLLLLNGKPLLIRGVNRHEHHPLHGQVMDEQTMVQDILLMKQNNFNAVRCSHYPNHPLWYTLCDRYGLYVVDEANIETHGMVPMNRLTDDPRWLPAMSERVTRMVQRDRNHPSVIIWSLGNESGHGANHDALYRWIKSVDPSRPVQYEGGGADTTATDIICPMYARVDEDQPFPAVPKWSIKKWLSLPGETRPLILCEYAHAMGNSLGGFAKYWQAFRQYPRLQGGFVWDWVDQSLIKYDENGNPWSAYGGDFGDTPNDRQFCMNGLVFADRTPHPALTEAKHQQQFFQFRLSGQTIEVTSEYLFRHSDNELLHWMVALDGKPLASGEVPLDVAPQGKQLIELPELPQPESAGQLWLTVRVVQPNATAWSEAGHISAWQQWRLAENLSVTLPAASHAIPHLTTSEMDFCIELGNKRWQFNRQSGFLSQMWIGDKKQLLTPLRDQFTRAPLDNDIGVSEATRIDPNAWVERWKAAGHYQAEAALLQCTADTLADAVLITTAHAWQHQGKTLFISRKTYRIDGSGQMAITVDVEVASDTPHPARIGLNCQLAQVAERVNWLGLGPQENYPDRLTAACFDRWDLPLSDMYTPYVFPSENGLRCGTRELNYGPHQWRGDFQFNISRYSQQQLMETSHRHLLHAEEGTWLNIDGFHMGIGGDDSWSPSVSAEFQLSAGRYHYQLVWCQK
sequence,measurement,setting,value
EFSNPTAQVFPDFWMSDGSC,Binding affinity (Norm.),[1],0.1±0.01
same,Specific activity (Norm.),[2],0.4±0.1
same,Activity (Norm.),[2]; 100 µM RBG,0.05±0.01
same,Enzyme binding (Norm.),[3],0.4
same,Enzyme activity (Norm.),[4],0.7
PASMFSYFKKQGYYYKLGSC,Binding affinity (Norm.),[1],0.5±0.1
same,Specific activity (Norm.),[2],0.5±0.1
same,Activity (Norm.),[2]; 100 µM RBG,0.3±0.06
same,Enzyme binding (Norm.),[3],63.9
same,Enzyme activity (Norm.),[4],2.3
same,Surface specific activity (Norm.),[4],0.16
QYHHFMNLKRQGRAQAYGSC [QYHH],Kd,[5],~4 nM
same,Km,[6],250 µM
RVFKRYKRWLHVSRYYFGSC,Binding affinity (Norm.),[1],0.9±0.05
same,Specific activity (Norm.),[2],0.1±0.01
same,Activity (Norm.),[2]; 100 µM RBG,0.1±0.01
same,Enzyme binding (Norm.),[3],50.3
same,Enzyme activity (Norm.),[4],0.9
same,Surface specific activity (Norm.),[4],0.08
YHNNPGFRVMQANKLHHGSC [Peptide Q12A],specific activity increase of bound β-Gal compared to YHNN lead peptide at pH 6,[7]; microarray incubated one hour at pH 6 and assayed at that pH,4.1 fold
same,specific activity increase of bound β-Gal compared to YHNN lead peptide at pH 9,[7]; microarray incubated one hour at pH 9 and assayed at that pH,2.8 fold
YHNNPGFRVMQQNKLHHGSC [YHNN],Kd,[5],~5 nM
same,Km,[6],~240 µM
YHNNPGFRYMQQNKLHHGSC [Peptide V9Y],binding of immobilized β-Gal relative to YHNN,[1]; [8],~2 fold
same,specific activity of immobilized β-Gal relative to YHNN,[2]; [8],~2 fold
same,total bound enzymatic activity relative to the NHS surface,[2]; [9],~12 fold
same,total bound enzymatic activity relative to the amine surface,[2]; [9],more than 5 fold
same,total activity of the bound enzyme relative to YHNN,"[2]; peptide-modified aminated microwell, 100 µM RBG",~5 fold
same,total bound enzyme activity compared with YHNN,[2]; single-point variants on aminated microwell surfaces,improvement
same,binding of β-Gal relative to YHNN lead peptide,[3]; [10],1.5 fold
same,specific activity of bound β-Gal relative to YHNN lead peptide,[4]; [10],~3 fold
